Legend:
[1] = stress-induced erosion test (Senay & Levine), anti-ulcer activity; type: in vivo; conditions: Dose 100 mg/kg
Procedure: (§1) Anti-ulcer activity was determined by the stress-induced erosion test of Senay & Levine, Proc. Soc. Exp. Biol. Med., 124, 1221-3(1967) and anti-secretory activity by the test of H. Shay, D. Sun and H. Greenstein, Gastroenterology, 1954, 26,903-13 as exemplified by Beattie et al in J. Med Chem, 20,714 (1977).

[2] = anti-secretory activity test (Shay et al); type: in vivo
Procedure: as §1

Row | Structure (SMILES) | Stress Induced erosion (Senay & Levine) % inhibition [1] [%] | Anti-Secretory (Shay et al) % change in volt ([2]; Dose 10 mg/kg) [%] | Anti-Secretory (Shay et al) % change in volt ([2]; Dose 30 mg/kg) [%]
1 | C[n+]1ccccc1SCSc1cccc[n+]1C [Example 1, Methylene bis((1-methylpyridinium-2-yl)-thio) diiodide] | 71 | -32 | -62
2 | C[n+]1ccccc1SCCSc1cccc[n+]1C [Example 2, 1,2-Di-((1-methylpyridinium-2-yl)thio)ethane dibromide] | 67 | – | -48

From patent US4288439A, “Anti-ulcer treatment method” (priority 1978, dated 1981)
